Measurements from patent publication US11360080B2, “AhR-ROR-γt complex as a biomarker and therapeutic target for autoimmune disease and IL-17A-associated disease” (NATIONAL HEALTH RESEARCH INSTITUTES, priority 2018, dated 2022).

Tested on: GLK
Test: GLK shRNA knockdown in T cells of Lck-GLK Tg mice, flow cytometry of IL-17A-producing T cells
Type: cell-based, mouse
Conditions: anti-CD3 3 h, day 3 post-transfection
Experimental: (A) Hematoxylin and eosin-stained sections of indicated organs from mice. Arrows, infiltrating immune cells. Bar, 100 μm. (B) Levels of serum autoantibodies from mice were determined by ELISA assays. The levels are presented relative to the value from one of wild-type mice. (C) The serum levels of cytokines in mice were determined by ELISA assays. (D) The serum levels of autoantibodies in Lck-GLK and Lck-GLK/IL-17A KO mice were determined by ELISA assays. The levels are presented relative to the value from one of Lck-GLK mice. (E) IL-17A expression was attenuated by GLK shRNA. Murine primary splenic T cells were transfected with GFP-human GLK shRNA and a control GFP vector. The transfected T cells were stimulated with anti-mouse CD3 antibodies for 3 h and then determined by flow cytometry at day 3 post-transfection. […] WT, wild-type littermate controls; Lck-GLK, T-cell-specific GLK transgenic mice. Lck-GLK/IL-17A KO, Lck-GLK; IL-17A-deficient mice. ANA, anti-nuclear antibody; α-dsDNA, anti-dsDNA antibody; RF, rheumatoid factor. *, P value<0.05; **, P value<0.01 (two-tailed Student's t-test).
Human Jurkat T leukaemia cells (TIB-152) were cultured in RPMI-1640 medium (Invitrogen) containing 10% fetal calf serum plus penicillin (10 units per ml) and streptomycin ([…]). […]

## GLK shRNA: human GLK shRNA (5′-GTGCCACTTAGAATGTTTGAAA-3, SEQ ID NO: 7) subcloned into pSUPER-GFP vector
  IL-17A overproduction in T cells from Lck-GLK Tg mice: abolished
